Laboratory results from patent US12521356B2, “Compositions and methods for treating pain, inflammation, infection, malaria, and sepsis” (Duke University, priority 2018, dated 2026).

Assays:
GPR37 [1] = biological target: T1, GPR37 (Homo sapiens, UniProt O15354); experiment: Ca2+ imaging (Fura-2AM) in HEK293 cells transfected with human GPR37 cDNA; assay type: cell-based; details: GPR37-expressing HEK293 cells; for intracellular Ca2+ (iCa2+) increase: 3 min
T1 construct: host or cells: HEK293 flip-in cells
T1 sequence (O15354 27-613): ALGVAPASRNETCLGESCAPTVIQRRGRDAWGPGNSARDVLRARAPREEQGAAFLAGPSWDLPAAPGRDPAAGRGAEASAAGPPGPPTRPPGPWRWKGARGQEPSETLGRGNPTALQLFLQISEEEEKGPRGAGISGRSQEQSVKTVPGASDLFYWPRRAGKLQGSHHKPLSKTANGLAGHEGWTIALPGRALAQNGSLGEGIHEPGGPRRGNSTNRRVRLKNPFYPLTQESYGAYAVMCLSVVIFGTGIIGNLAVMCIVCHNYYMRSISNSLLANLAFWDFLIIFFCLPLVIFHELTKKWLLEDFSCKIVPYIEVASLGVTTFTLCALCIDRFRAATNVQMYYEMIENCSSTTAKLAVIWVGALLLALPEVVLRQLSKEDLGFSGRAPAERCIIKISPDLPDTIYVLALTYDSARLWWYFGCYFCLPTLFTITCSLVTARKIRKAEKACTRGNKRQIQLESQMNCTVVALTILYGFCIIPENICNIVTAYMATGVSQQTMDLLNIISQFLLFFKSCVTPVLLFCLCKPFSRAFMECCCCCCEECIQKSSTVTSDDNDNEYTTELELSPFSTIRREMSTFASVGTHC
Description: HEK cell culture and transfection. HEK293 flip-in cell line was purchased from Duke Cell Culture Facility. Cells were cultured in high glucose (4.5 g/L) Dulbecco's Modified Eagle's Medium containing 10% (v/v) fetal bovine serum (Gibco). Transfection (2 μg cDNA) was performed with Lonza electroporation (Lonza) at 70% confluency and the transfected cells were cultured in the same growth medium for 48 h before use. The hGPR37-V5 pLenti304 plasmids were obtained from DNASU (Tempe, AZ), and hGPR32, hChemR23 and hALX pcDNA3 plasmids were provided by Dr. Serhan from Harvard Medical School, Boston.
(§1) Calcium imaging. HEK 293 cells, with or without transfection of Gpr37, GPR32, ChemR23 or ALX1 cDNA, were loaded with 5 μM Fura-2AM (Invitrogen) for 1 hour and then were resuspended in normal external buffer (140 NaCl, 5 KCl, 2 CaCl2, 2 MgCl2, 10 HEPES, in mM, titrated to pH 7.4 with NaOH) or external Ca^2+-free buffer (140 NaCl, 2 MgCl2, 5 EGTA, 10 HEPES, in mM, titrated to pH 7.4 with NaOH). Peritoneal macrophages, collected from WT and Gpr37 KO mice, were loaded with 5 μM […] (Invitrogen) for 1 hour and then were resuspended in normal external buffer. Images of the HEK 293 cells and macrophages with the excitation wavelength of 340 nm and 380 nm were captured with a cooled Digital CMOS camera (ORCA-Flash 4.0, Hamamatsu Photonics K.K, Japan). The ratio of fluorescence intensity of the two wavelengths in each experiment was analyzed using MetaFluor (Molecular Devices). The Shutter speed and wavelength was controlled by Lambda DG-4 system (Sutter instrument Co., Novato, CA). Values from each of the experiments were normalized to the baseline ratio of 340/380 nm.
In order to investigate how GPR37 regulates intracellular signaling, we conducted Ca^2+ imaging in HEK293 cells that overexpress GPR37. […] Thus, we hypothesized TX14 and SPM may activate the same receptors and elicit similar intracellular responses. We transfected HEK293 cells with human GPR37 cDNA, loaded these cells with Ca^2+ dye Fura-2AM, and stimulated them with TX14 and various SPMs, using ionomycin (2 μM) as a positive control for Ca^2+ influx (FIG. 2A, FIG. 2B, FIG. 2C).

GPR37 [2] = biological target: T2, GPR37 (Mus musculus, UniProt Q9QY42); experiment: Ca2+ imaging (Fluo-4AM) in peritoneal macrophages (pMΦ) from WT and Gpr37−/− mice; assay type: cell-based; details: for iCa2+ levels: 100 nM
T2 sequence (Q9QY42 27-600): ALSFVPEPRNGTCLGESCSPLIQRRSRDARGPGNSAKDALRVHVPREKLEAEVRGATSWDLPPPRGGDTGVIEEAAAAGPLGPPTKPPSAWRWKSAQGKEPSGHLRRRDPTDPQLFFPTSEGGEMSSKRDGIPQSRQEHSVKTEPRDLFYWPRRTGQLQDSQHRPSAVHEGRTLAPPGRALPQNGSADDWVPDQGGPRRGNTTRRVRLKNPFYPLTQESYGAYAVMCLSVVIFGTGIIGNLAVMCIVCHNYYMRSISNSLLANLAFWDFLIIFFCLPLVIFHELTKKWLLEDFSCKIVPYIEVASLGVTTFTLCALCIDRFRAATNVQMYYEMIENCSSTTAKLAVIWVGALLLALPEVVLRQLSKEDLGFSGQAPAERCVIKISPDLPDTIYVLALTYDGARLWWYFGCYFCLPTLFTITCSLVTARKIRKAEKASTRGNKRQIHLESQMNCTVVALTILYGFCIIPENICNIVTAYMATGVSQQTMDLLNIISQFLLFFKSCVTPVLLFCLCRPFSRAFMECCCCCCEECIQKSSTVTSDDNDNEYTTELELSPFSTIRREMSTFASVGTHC
Description: Peritoneal macrophage culture. Peritoneal macrophages were collected by peritoneal lavage with 10 ml warm PBS containing of 1 mM EDTA. Cells were incubated in DMEM supplemented with 10% FBS at 37° C. for 2 h in petri dish and washed with PBS to eliminate non-adherent cells. The adherent cells were used as peritoneal macrophages. Peritoneal macrophages were used after 3 days of culture.
as §1
Next, we conducted GPR37-mediated Ca^2+ imaging in native pMΦ from WT and Gpr37^−/− mice using Fluo-4AM as a Ca^2+ indicator, since this dye works better than Fura-2AM for pMΦ. […] As compared to iCa^2+ increase in GPR37-expressing HEK293 cells, NPD1 trigger a slow-onset but more persistent Ca^2+ response in pMΦ (FIG. 2B and FIG. 2G). A relatively rapid calcium response in HEK293 cells may result from over-expression of GPR37. A sustained iCa^2+ increase in pMΦ may result from the expression of transient receptor potential (TRP) ion channels in these immune cells. It is noteworthy that macrophages express TRPV2 or TRPM2, which are involved in phagocytosis during bacterial infection. […] NPD1-triggered iCa^2+ increase in pMΦ is also Gi-dependent, since PTX blocked this increase (FIG. 2H). For comparison, ATP-evoked iCa^2+ increase was not altered in GPR37-deficient pMΦ (FIG. 2H).

| SMILES | intracellular Ca2+ (iCa2+) increase (GPR37 [1]; 30 nM) | EC50 (GPR37 [1]; dose response, read-out: EC50 of iCa2+ increase) [nM] | iCa2+ increase (GPR37 [2]; 30 nM, WT pMΦ) | EC50 (GPR37 [2]; pMΦ, dose response, read-out: EC50 of iCa2+ increase) [nM] | intracellular Ca2+ (iCa2+) increase (GPR37 [1]; 100 nM) | iCa2+ levels (GPR37 [2]; pMΦ) |
| --- | --- | --- | --- | --- | --- | --- |
| CC/C=C\C[C@H](O)\C=C/C=C/C=C/[C@H](O)C/C=C\C/C=C\CCC(=O)O [NPD1, neuroprotectin D1] | elicited significant increases | 26 | robust and sustained iCa^2+ increase | 19.5 | – | – |
| CC[C@@H](O)/C=C/C=C\C[C@@H](O)/C=C/C=C/C=C\[C@@H](O)CCCC(=O)O [RvE1] | – | – | – | – | failed to increase iCa^2+ | did not alter iCa^2+ levels |
| CC/C=C\C[C@H](O)/C=C/C=C\C=C\C=C\[C@@H](O)[C@@H](O)C/C=C\CCC(=O)O [RvD1] | – | – | – | – | failed to increase iCa^2+ | did not alter iCa^2+ levels |
